Read-outs that look alike come from different tables or passages of the source.
How the values were obtained:
[1] = cited from earlier work
[2] = for increase in exposure, AUC(INF) / increase in exposure, Cmax: mild or moderate hepatic impairment compared with normal hepatic function
[3] = animal studies; no reference given; cited from earlier work
Plasma protein binding = format: in vitro ADME, human; details: for fraction unbound: human, plasma, oral, 60 mg, geometric mean (geometric CV)
[4] = system: cytochrome P450 (CYP)-3A4; details: in words; no reference given; cited from earlier work
[5] = Safety and tolerability of single oral dose milvexian 60 mg; format: in vivo, human; details: single oral 60 mg, all groups, in words
[6] = milvexian 60 mg; ref previous studies; cited from earlier work
[7] = system: activated partial thromboplastin time (aPTT); assay: Pharmacodynamic biomarker aPTT after single-dose milvexian 60 mg; format: in vivo, human; details: for Time at which mean aPTT returned to baseline: post-dose; for Maximal percentage increase from baseline in aPTT: single oral 60 mg

Compound: COc1ccc(-n2nc(C(N)=O)c3c2C(=O)N(c2ccc(N4CCCCC4=O)cc2)CC3)cc1 [apixaban]
- AUC increase in participants with moderate hepatic impairment ([1]; apixaban 5 mg): 1.09 fold

Compound: C[C@@H]1CCC[C@H](n2cnc(-c3cc(Cl)ccc3-n3cc(Cl)nn3)cc2=O)c2cc(ccn2)-c2c(cnn2C(F)F)NC1=O [milvexian]
- variability in pharmacokinetics observed in this study ([2]; milvexian 60 mg, group with normal hepatic function): > 50%
- increase in exposure, AUC(INF) ([2]; total milvexian): up to 18%
- increase in exposure, Cmax ([2]; total milvexian): up to 18%
- increase in exposure, AUC(INF) ([2]; unbound milvexian): up to 30%
- increase in exposure, Cmax ([2]; unbound milvexian): up to 40%
- direct biliary excretion [3]: ~ 30 % of the dose
- excretion through metabolism [3]: 40–50 % of the administered dose
- fraction unbound (Plasma protein binding; mild hepatic impairment (n = 9)): 0.0852
- fraction unbound (Plasma protein binding; moderate hepatic impairment (n = 8)): 0.0955
- fraction unbound (Plasma protein binding; normal hepatic function (n = 9)): 0.0775
- Plasma protein binding (Plasma protein binding; in words): moderate to high
- geometric mean fraction of unbound milvexian (Plasma protein binding; mild hepatic impairment): 8.52%
- geometric mean fraction of unbound milvexian (Plasma protein binding; moderate hepatic impairment): 9.55%
- geometric mean fraction of unbound milvexian (Plasma protein binding; normal hepatic function): 7.75%
- metabolising enzymes [4]: predominantly metabolized by cytochrome P450 (CYP)-3A4, with minor contributions from CYP3A5
- bleeding AEs [5]: no bleeding AEs
- deaths, SAEs, discontinuations due to AEs [5]: no serious adverse events (AEs), bleeding AEs, or discontinuations due to AEs
- drug-induced liver injury [5]: no reports of drug-induced liver injury
- deaths, SAEs, discontinuations due to AEs ([5]; listed as Milvexian): no deaths, SAEs, or treatment discontinuations due to AEs
- expected variability in pharmacokinetics [6]: ~ 20%
- Time at which mean aPTT returned to baseline ([7]; mild hepatic impairment): ≤ 48 h
- Maximal percentage increase from baseline in aPTT ([7]; mild hepatic impairment): approximately 90%
- Time at which mean aPTT returned to baseline ([7]; moderate hepatic impairment): approximately 72 h
- Maximal percentage increase from baseline in aPTT ([7]; moderate hepatic impairment): approximately 90%
- Time at which mean aPTT returned to baseline ([7]; normal hepatic function): ≤ 48 h
- increase in aPTT ([7]; participants with hepatic impairment (mild or moderate), single dose 60 mg): 90%

Compound: O=C(NC[C@H]1CN(c2ccc(N3CCOCC3=O)cc2)C(=O)O1)c1ccc(Cl)s1 [rivaroxaban]
- AUC increase in participants with moderate hepatic impairment ([1]; rivaroxaban 10 mg): 2.27 fold

Reference: article PMC9249726 (Clinical Pharmacokinetics, 2022)
